Laboratory results taken from US11660324B2, “Copper complexes for treatment of neurodegenerative disorders” (ALS Therapy Development Institute, priority 2019, dated 2023).

What was measured:
mice = assay: Tolerability in mice (previous studies); type: in vivo; details: 30 mg/kg
SOD1^G93A mice [1] = assay: Survival / lifespan; type: in vivo
Method: (§1) To test the efficacy of CuPTSM compared to CuATSM, mice were tested for delays in paresis and overall lifespan. Mice were given 6 mg/kg CuPTSM (n=32), 30 mg/kg CuATSM (n=32), and 100 mg/kg CuATSM (n=32) once a day to assess disease progression, and identify drug-induced changes in SOD1^G93A mice compared to their respective vehicle-only control mice. Neurological scoring to test the onset of paresis for each mouse was performed throughout the study according to the protocol as disclosed in Hatzipetros et al. (2015, J. Visualized Experiments. doi:10.3791/53257), incorporated herein by reference in its entirety. Briefly, mice were scored on a scale of NS 0 (pre-symptomatic) to NS 4 (humane end-point) based on a combination of a tail suspension test, a walking test, and a “righting reflex” test.
Survival for each cohort was also tracked throughout the study.
(§2) To compare the effects of CuPTSM administered at a much lower dose than CuATSM, mice were administered 6 mg/kg […] and survival and onset of paresis were measured as before.

SOD1^G93A mice [2] = assay: Onset of paresis by neurological scoring; type: in vivo
Method: as §1, §2

male SOD1^G93A mice = assay: Compound muscle action potential (CMAP), sciatic nerve / tibialis anterior; type: in vivo
Method: Compound muscle action potential (CMAP) was measured in mice given CuPTSM, CuATSM, or vehicle. CMAP is an electrophysiological technique that assess functional integrity of motor axons. The sciatic nerve is stimulated using implanted microelectrodes proving small electrical currents, and the response is measured in the innervated tibialis anterior (TA) muscle using an implanted recording electrode. It is known that the CMAP signal is decreased in the case of neuromuscular diseases, like in ALS patients, and recapitulated in the SOD1^G93A mouse model due to motor unit loss. In male SOD1^G93A mice, it has been shown that CMAP changes may happen as early as age day 50 and invariably worse after. In the present study, mice were treated once a day for 14 days with 2, 6, or 12 mg/kg CuPTSM; 10 or 30 mg/kg CuATSM; or vehicle (control). A total of 9 male mice were tested for each condition.
Prior to drug administration and assignment of mice to a cohort, CMAP was recorded for each mouse to establish a baseline measurement. Mice were then randomized into each treatment cohort, and administered the respective compounds and dosages of the cohort via oral gavage daily for two weeks. CMAP data was recorded at the end of the two weeks, and compared to the baseline measurements to calculate percent of baseline to illustrate the efficacy of CuPTSM and CuATSM compared to just vehicle.

[3] = Pharmacokinetics of CuPTSM compared to CuATSM (plasma and spinal cord) after single oral bolus; type: in vivo; details: single oral bolus 30 mg/kg, SOD1^G93A mice
Method: The SOD1^G93A transgenic mouse model of ALS has been the most widely used animal model since the 1990s. The mouse was genetically engineered to overexpress a mutant form of the human Cu/Zn superoxide dismutase 1 (SOD1) gene harboring an ALS-associated glycine to alanine mutation at amino acid position 93 (G93A). Currently, the clinical strategy for the treatment of ALS with CuATSM is to escalate human dosing until ALS patients show plasma levels equivalent to those seen in mice given 30 mg/kg/day.
To compare the effects of CuPTSM to CuATSM in vivo, a single bolus of 30 mg/kg CuPTSM or 30 mg/kg CuATSM in an oral suspension of 0.5% methylcellulose/0.4% TWEEN-80/0.9% normal saline was administered to SOD1^G93A mice. Absorption half-life, elimination half-life, and Cmax measurements were taken from both plasma and spinal cord samples to measure drug exposure of CuPTSM or CuATSM for up to 6 hr after administration of drug.
Similar measurements were recorded for concentrations of CuPTSM and CuATSM in the spinal cord. […] As with the plasma concentrations, the spinal cord concentrations of CuATSM remained constant, even 6 hr after administration (FIG. 2B).

[4] = Pharmacokinetic simulation of repeated dosing, linear kinetics assumed; parameters: species or system mice; details: simulation from single-dose PK parameters
Method: FIG. 3A is a simulation using PK parameters derived from the experiment of FIG. 1A and FIG. 1B, assuming linear pharmacokinetics. Plasma concentrations (ng/mL) in mice receiving 6 mg/kg CuPTSM, 30 mg/kg CuATSM, or 100 mg/kg CuATSM are depicted over time (hours). FIG. 3B is a simulation using PK parameters derived from the experiment of FIG. 1A and FIG. 1B, assuming linear pharmacokinetics. Spinal cord concentrations (ng/mL) in mice receiving 6 mg/kg CuPTSM, 30 mg/kg CuATSM, or 100 mg/kg CuATSM are depicted over time (hours).
Using the data and parameters derived from the above experiments using a single bolus of 6 mg/kg CuPTSM, 30 mg/kg CuATSM, or 100 mg/kg CuATSM, plasma and spinal cord concentrations were recorded on a plot over time (hours) to illustrate pharmacokinetic simulations over time. Linear kinetics were assumed. […] Similar results were obtained when concentrations were measured in spinal cord samples (FIG. 3B).

SMILES	tolerability in mice (mice)	survival compared to control (SOD1^G93A mice [1]; 6 mg/kg once a day)	onset of paresis compared to control (SOD1^G93A mice [2]; 6 mg/kg once a day)	absorption half-life ([3]; plasma)	elimination half-life ([3]; plasma)	plasma Cmax ([3]; plasma)	Cmax ([3]; spinal cord)	absorption half-life ([3]; spinal cord)	elimination half-life ([3]; spinal cord)	also measured
CN=C([S-])N/N=C(C)/C(C)=N/NC([S-])=NC.[Cu+2] [CuATSM]	well-tolerated	no significant difference in survival	no significant improvement in onset of paresis	0.24 h	13.7 h	198 ng/mL	2 ng/mL	0.65 h	13.8 h	survival compared to control (SOD1^G93A mice [1]; 30 mg/kg once a day): increase in survival over the control counterparts; survival compared to control (SOD1^G93A mice [1]; 100 mg/kg once a day): increase in survival over the control counterparts; onset of paresis compared to control (SOD1^G93A mice [2]; 30 mg/kg once a day): delaying onset over the control; onset of paresis compared to control (SOD1^G93A mice [2]; 100 mg/kg once a day): delaying onset over the control; CMAP change from baseline compared to vehicle (male SOD1^G93A mice; 10 mg/kg oral gavage once a day for 14 days): no significant difference in CMAP measurements; CMAP change from baseline compared to vehicle (male SOD1^G93A mice; 30 mg/kg oral gavage once a day for 14 days): no significant difference in CMAP measurements; simulated plasma concentration before the next dose ([4]; 30 mg/kg): did not return to 0 ng/mL prior the next dose; simulated plasma concentration before the next dose ([4]; 100 mg/kg): did not return to 0 ng/mL prior the next dose
CN=C([S-])N/N=C/C(C)=N/NC([S-])=NC.[Cu+2] [CuPTSM, copper PTSM]	toxic to mice	increase in survival over the control counterparts	delaying onset over the control	0.54 h	2.44 h	1565 ng/mL	7.27 ng/mL	1.0 h	1.9 h	survival compared to CuATSM 30 and 100 mg/kg groups (SOD1^G93A mice [1]; 6 mg/kg once a day): markedly improved survival; delay of onset of paresis compared to CuATSM 30 and 100 mg/kg groups (each over its respective control) (SOD1^G93A mice [2]; 6 mg/kg once a day): significantly delayed onset of paresis over CuATSM; CMAP change from baseline compared to vehicle (male SOD1^G93A mice; 2 mg/kg oral gavage once a day for 14 days): significantly greater change from baseline; CMAP change from baseline compared to vehicle (male SOD1^G93A mice; 6 mg/kg oral gavage once a day for 14 days): significantly greater change from baseline; CMAP change from baseline compared to vehicle (male SOD1^G93A mice; 12 mg/kg oral gavage once a day for 14 days): significantly greater change from baseline; simulated plasma concentration before the next dose ([4]; 6 mg/kg): plasma levels returned to 0 ng/mL prior to the next dose
